The record followed here is patent US8975417B2, “Pyrazolopyrrolidine derivatives and their use in the treatment of disease” (Novartis AG, priority 2013, dated 2015).

pIC50: −log10 of the molar value.

What all share (conditions): biochemical
One assay addresses His-Brd2(60-472) (Homo sapiens (Human), UniProt P25440). Nature of the assay: TR-FRET in-vitro binding assay for BRD2. How it is done: (§1) TR-FRET In-Vitro Binding Assays for BRD2, BRD3, and BRD4:
(§2) All assays were performed in 384-well microtiter plates. Each assay plate contained 8-point serial dilutions for 40 test compounds, plus 16 high- and 16 low controls. Liquid handling and incubation steps were done on an Innovadyne Nanodrop Express equipped with a robotic arm (Thermo CatX, Perkin Elmer/Caliper Twister II) and an incubator (Liconic STX40, Thermo Cytomat 2C450). The assay plates were prepared by addition of 50 nl per well of compound solution in 90% DMSO HummingBird nanodispenser (Zinsser Analytic). The assay was started by stepwise addition of 4.5 μL per well of bromo domain protein (50 mM HEPES, pH 7.5, 0.005% Tween20, 0.1% BSA, 50 mM NaCl, 45 nM His-Brd2(60-472) or 45 nM His-Brd3(20-477) or 45 nM His-Brd4(44-477) all proteins produced in-house) and 4.5 μL per well of peptide solution (50 mM HEPES, pH 7.5, 0.005% Tween20, 0.1% BSA, 50 mM NaCl, 60 nM acetyl-histone H4 (AcK 5, 8, 12, 16) (Biosyntan GmbH)). Reactions were incubated at 30° C. for 35 minutes. Subsequently 4.5 μL per well detection mix (50 mM HEPES, pH 7.5, 0.005% Tween20, 0.1% BSA, 50 mM NaCl, 3 nM Eu-labeled anti-His6 antibody, 21 nM streptavidin-allophycocyanin) were added. After minutes incubation at 30° C., plates were measured in a Perkin Elmer EnVision multilabel reader.
(§3) Test compounds were dissolved in DMSO (10 mM) and transferred into 1.4 mL flat bottom or V-shaped Matrix tubes carrying a unique 2D matrix. The stock solutions were stored at […] if not used immediately. For the test procedure the vials were defrosted and identified by a scanner whereby a working sheet was generated that guided the subsequent working steps. Compound dilutions were made in 96 well plates. This format enabled the assay of maximally […] at 8 concentrations (single points) including 4 reference compounds, if desired (known BET inhibitors from the prior art, for this and other assays of the type disclosed herein). The dilution protocol included the production of “pre-dilution plates”, “master plates” and “assay plates”.
(§4) Polypropylene 96-well plates were used as pre-dilution plates. […] All dilution steps were done on a HamiltonSTAR robot.
(§5) 30 μL of individual compound dilutions including standard compound and controls of the 4 “pre-dilution plates” were transferred into a 384-well “master plate” including the following concentrations 10000, […], 1000, 300, 100, 30, 10 and 3 μM, respectively in 90% of DMSO.
(§6) Identical “assay plates” were then prepared by pipetting 50 nL each of compound dilutions of the “master plates” into 384-well “assay plates” by means of a HummingBird 384-channel dispenser. These plates were used directly for the assay which was performed in a total volume of 13.55 μL.
Background: Time-resolved FRET reads energy transfer from a long-lived donor to a nearby acceptor.

Assay [1] addresses His-CREBBP (1081-1197) bromodomain (Homo sapiens (Human), UniProt Q92793). Nature of the assay: AlphaScreen in-vitro binding assay for CREBBP. Here is the method: AlphaScreen In-Vitro Binding Assay for CREBBP
In order to assess bromodomain selectivity, we set up a binding assay using the bromodomain encoded by the CREBBP gene. […] Reactions were incubated at 30° C. for 35 minutes. Subsequently 4.5 μL per well detection mix (50 mM HEPES, pH 7.5, 0.005% Tween20, 0.02% BSA, 150 mM NaCl, 45 μg/ml Ni-chelate acceptor beads, 45 μg/mL streptavidin-donor beads) (Perkin Elmer)) were added. After 60 minutes incubation at room temperature, plates were measured in a Perkin Elmer EnVision multilabel reader. IC50 values were determined from percent inhibition values at different compound concentrations by non-linear regression analysis.
as §3, §4
These plates were used directly for the assay which was performed in a total volume of 13.55 μL.
On the technique in general: In Alpha technology, singlet oxygen from a donor bead excites a nearby acceptor bead.

Another assay concerns the target His-Brd4(44-477) (Homo sapiens (Human), UniProt O60885). Description: TR-FRET in-vitro binding assay for BRD4. How it is done: as §1, §2, §3, §4, §5, §6
In another assay the target is His-Brd3(20-477) (Homo sapiens (Human), UniProt Q15059). Description: TR-FRET in-vitro binding assay for BRD3. Here is the method: as §1, §2, §3, §4, §5, §6
Sequence of His-Brd3(20-477) (Q15059 20-477): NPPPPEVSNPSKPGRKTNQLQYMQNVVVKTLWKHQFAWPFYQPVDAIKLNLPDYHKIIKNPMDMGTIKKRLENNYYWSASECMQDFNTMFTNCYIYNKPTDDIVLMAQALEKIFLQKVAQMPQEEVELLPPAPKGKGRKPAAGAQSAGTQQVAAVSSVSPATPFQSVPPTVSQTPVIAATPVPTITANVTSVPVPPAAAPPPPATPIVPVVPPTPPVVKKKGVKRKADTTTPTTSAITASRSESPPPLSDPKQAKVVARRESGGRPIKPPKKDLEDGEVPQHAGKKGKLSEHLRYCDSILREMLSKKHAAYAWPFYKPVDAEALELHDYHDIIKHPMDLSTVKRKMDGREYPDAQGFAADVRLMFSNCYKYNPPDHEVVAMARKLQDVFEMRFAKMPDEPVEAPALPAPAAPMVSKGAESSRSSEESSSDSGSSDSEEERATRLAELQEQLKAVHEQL

Sequence of His-Brd2(60-472) (P25440 60-472): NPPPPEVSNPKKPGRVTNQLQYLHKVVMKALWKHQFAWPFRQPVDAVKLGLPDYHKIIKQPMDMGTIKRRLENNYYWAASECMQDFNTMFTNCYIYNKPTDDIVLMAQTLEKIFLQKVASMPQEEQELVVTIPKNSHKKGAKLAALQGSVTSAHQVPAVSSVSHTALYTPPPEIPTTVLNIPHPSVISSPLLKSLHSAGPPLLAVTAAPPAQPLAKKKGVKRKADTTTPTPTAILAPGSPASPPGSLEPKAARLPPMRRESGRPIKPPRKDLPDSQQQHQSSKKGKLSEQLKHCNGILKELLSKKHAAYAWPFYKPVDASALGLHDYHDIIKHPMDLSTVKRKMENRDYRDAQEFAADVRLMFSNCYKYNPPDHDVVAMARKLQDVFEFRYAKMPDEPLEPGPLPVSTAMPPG
Sequence of His-CREBBP (1081-1197) bromodomain (Q92793 1081-1197): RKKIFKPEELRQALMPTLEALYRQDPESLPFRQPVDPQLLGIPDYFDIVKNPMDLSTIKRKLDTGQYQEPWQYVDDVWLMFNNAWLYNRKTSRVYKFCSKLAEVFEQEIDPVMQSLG

For the compound `Cc1nn(C2CC2)c2c1C(c1ccc(Cl)cc1)N(c1cc(Cl)c(=O)n(C)c1)C2=O` (racemic) [Example 24, 5-(5-chloro-1-methyl-6-oxo-1,6-dihydropyridin-3-yl)-4-(4-chlorophenyl)-1-cyclopropyl-3-methyl-4,5-dihydropyrrolo[3,4-c]pyrazol-6(1H)-one], the negative logarithm of the IC50 (pIC50) on His-Brd2(60-472) was 6.64; in assay [1], 5.23; at His-Brd4(44-477) it was 6.82; on His-Brd3(20-477), 6.82.
`COCc1nn(C2CC2)c2c1C(c1ccc(Cl)cc1)N(c1cc(C)c(=O)n(C)c1)C2=O` (racemic) [Example 132, 4-(4-chlorophenyl)-1-cyclopropyl-5-(1,5-dimethyl-6-oxo-1,6-dihydropyridin-3-yl)-3-(methoxymethyl)-4,5-dihydropyrrolo[3,4-c]pyrazol-6(1H)-one]: the pIC50 on His-Brd2(60-472) is 7.09; in assay [1], 5.32; at His-Brd4(44-477), 7.17; at His-Brd3(20-477), 7.05.
Regarding `Cc1[nH]nc2c1C(c1ccc(Cl)cc1)N(c1cc(Cl)c(=O)n(C)c1)C2=O` (centres unmarked) [Example 5, 5-(5-chloro-1-methyl-6-oxo-1,6-dihydropyridin-3-yl)-4-(4-chlorophenyl)-3-methyl-4,5-dihydropyrrolo[3,4-c]pyrazol-6(2H)-one], the pIC50 on His-Brd2(60-472) is 6.14; in assay [1], 5.25; on His-Brd4(44-477), 6.44; on His-Brd3(20-477) it was 6.43.
Turning to `Cc1c2c(nn1C)C(=O)N(c1cc(Cl)c(=O)n(C)c1)C2c1ccc(Cl)cc1` (centres unmarked) [Example 6, 5-(5-chloro-1-methyl-6-oxo-1,6-dihydropyridin-3-yl)-4-(4-chlorophenyl)-2,3-dimethyl-4,5-dihydropyrrolo[3,4-c]pyrazol-6(2H)-one], the pIC50 was 6.46 on His-Brd2(60-472), 5.46 in assay [1], 6.72 at His-Brd4(44-477) and 6.74 at His-Brd3(20-477).
Turning to `Cc1c2c(nn1C1CC1)C(=O)N(c1cc(Cl)c(=O)n(C)c1)C2c1ccc(Cl)cc1` (centres unmarked) [Example 17, 5-(5-chloro-1-methyl-6-oxo-1,6-dihydropyridin-3-yl)-4-(4-chlorophenyl)-2-cyclopropyl-3-methyl-4,5-dihydropyrrolo[3,4-c]pyrazol-6(2H)-one], the negative logarithm of the IC50 (pIC50) on His-Brd2(60-472) is 6.74; in assay [1] it was 5.89; on His-Brd4(44-477), 6.85; at His-Brd3(20-477), 7.01.
`Cc1cc(N2C(=O)c3nn(C4CC4)c(C)c3C2c2ccc(Cl)cc2)cn(C)c1=O` (centres unmarked) [Example 20, 4-(4-chlorophenyl)-2-cyclopropyl-5-(1,5-dimethyl-6-oxo-1,6-dihydropyridin-3-yl)-3-methyl-4,5-dihydropyrrolo[3,4-c]pyrazol-6(2H)-one]: the pIC50 on His-Brd2(60-472) is 6.89; in assay [1] it was 5.96; at His-Brd4(44-477), 7.06; at His-Brd3(20-477) it was 7.11.
Taken in the same sequence, the figures for `Cc1cc(N2C(=O)c3nn(C)c(C)c3C2c2ccc(Cl)cc2)cn(C)c1=O` (centres unmarked) [Example 28, 4-(4-chlorophenyl)-5-(1,5-dimethyl-6-oxo-1,6-dihydropyridin-3-yl)-2,3-dimethyl-4,5-dihydropyrrolo[3,4-c]pyrazol-6(2H)-one] were 6.49, 5.48, 6.85 and 6.80.
With `Cc1noc2ccc(N3C(=O)c4nn(C)c(C)c4C3c3ccc(Cl)cc3)cc12` (centres unmarked) [Example 33, 4-(4-chlorophenyl)-2,3-dimethyl-5-(3-methylbenzo[d]isoxazol-5-yl)-4,5-dihydropyrrolo[3,4-c]pyrazol-6(2H)-one], the pIC50 on His-Brd2(60-472) was 5.92; in assay [1], less than 4.43; on His-Brd4(44-477), 6.15; at His-Brd3(20-477), 6.04.
In the case of `Cn1cc(N2C(=O)c3nn(C4CC4)cc3C2c2ccc(Cl)cc2)cc(Cl)c1=O` (centres unmarked) [Example 37, 5-(5-chloro-1-methyl-6-oxo-1,6-dihydropyridin-3-yl)-4-(4-chlorophenyl)-2-cyclopropyl-4,5-dihydropyrrolo[3,4-c]pyrazol-6(2H)-one], the pIC50 at His-Brd2(60-472) was 6.85; in assay [1], 5.92; at His-Brd4(44-477) it was 6.77; at His-Brd3(20-477), 6.85.
Turning to `CC(C)n1ncc2c1C(=O)N(c1cc(Cl)c(=O)n(C)c1)C2c1ccc(Cl)cc1` (centres unmarked) [Example 38, 5-(5-chloro-1-methyl-6-oxo-1,6-dihydropyridin-3-yl)-4-(4-chlorophenyl)-1-isopropyl-4,5-dihydropyrrolo[3,4-c]pyrazol-6(1H)-one], the pIC50 was 7.31 at His-Brd2(60-472), 5.72 in assay [1], 7.21 on His-Brd4(44-477) and 7.12 at His-Brd3(20-477).
With `Cn1cc(N2C(=O)c3nn(C4CC4)c(C(F)(F)F)c3C2c2ccc(Cl)cc2)cc(Cl)c1=O` (centres unmarked) [Example 40, 5-(5-chloro-1-methyl-6-oxo-1,6-dihydropyridin-3-yl)-4-(4-chlorophenyl)-2-cyclopropyl-3-(trifluoromethyl)-4,5-dihydropyrrolo[3,4-c]pyrazol-6(2H)-one], the negative logarithm of the IC50 (pIC50) on His-Brd2(60-472) was 6.80; in assay [1], 6.13; at His-Brd4(44-477), 6.66; on His-Brd3(20-477) it was 6.82.
As to `Cc1cc(N2C(=O)c3nn(C(C)C)cc3C2c2ccc(Cl)cc2)cn(C)c1=O` (centres unmarked) [Example 41, 4-(4-chlorophenyl)-5-(1,5-dimethyl-6-oxo-1,6-dihydropyridin-3-yl)-2-isopropyl-4,5-dihydropyrrolo[3,4-c]pyrazol-6(2H)-one], the pIC50 at His-Brd2(60-472) is 7.12; in assay [1], 6.42; at His-Brd4(44-477), 7.02; at His-Brd3(20-477) it was 7.07.
With `CC(C)n1cc2c(n1)C(=O)N(c1cc(Cl)c(=O)n(C)c1)C2c1ccc(Cl)cc1` (centres unmarked) [Example 42, 5-(5-chloro-1-methyl-6-oxo-1,6-dihydropyridin-3-yl)-4-(4-chlorophenyl)-2-isopropyl-4,5-dihydropyrrolo[3,4-c]pyrazol-6(2H)-one], the pIC50 at His-Brd2(60-472) is 7.04; in assay [1], 6.35; at His-Brd4(44-477), 7.00; at His-Brd3(20-477), 7.05.
Regarding `Cc1cc(N2C(=O)c3nn(C4CC4)c(C(F)(F)F)c3C2c2ccc(Cl)cc2)cn(C)c1=O` (centres unmarked) [Example 43, 4-(4-chlorophenyl)-2-cyclopropyl-5-(1,5-dimethyl-6-oxo-1,6-dihydropyridin-3-yl)-3-(trifluoromethyl)-4,5-dihydropyrrolo[3,4-c]pyrazol-6(2H)-one], the pIC50 is 7.00 at His-Brd2(60-472), 6.18 in assay [1], 6.92 at His-Brd4(44-477) and 6.96 on His-Brd3(20-477).
Consider `Cc1nn(C2CC2)c2c1[C@H](c1ccc(Cl)cc1)N(c1cc(C)c(=O)n(C)c1)C2=O` [Example 48, (S)-4-(4-chlorophenyl)-1-cyclopropyl-5-(1,5-dimethyl-6-oxo-1,6-dihydropyridin-3-yl)-3-methyl-4,5-dihydropyrrolo[3,4-c]pyrazol-6(1H)-one], for which the pIC50 is less than 5.17 at His-Brd2(60-472), less than 5.29 in assay [1], less than 5.17 on His-Brd4(44-477) and less than 5.17 on His-Brd3(20-477).
With `Cc1nn(C2CC2)c2c1[C@H](c1ccc(Cl)cc1)N(c1cc(Cl)c(=O)n(C)c1)C2=O` [Example 50, (S)-5-(5-chloro-1-methyl-6-oxo-1,6-dihydropyridin-3-yl)-4-(4-chlorophenyl)-1-cyclopropyl-3-methyl-4,5-dihydropyrrolo[3,4-c]pyrazol-6(1H)-one], the negative-log IC50 (pIC50) on His-Brd2(60-472) is less than 5.17; in assay [1], less than 5.29.

As a reminder, the pIC50 is −log10 of the IC50, conventionally taken in molar units. A low value points to a high IC50.
